The text below walks through data of patent publication US8859587B2, “(2E)-3-phenyl-N-[2,2,2-Trifluoro-1-[[8-quinolineamino)thiomethyl]amino]ethyl]-2-acrylamide and pharmaceutical uses thereof” (Chinese PLA General Hospital, priority 2010, dated 2014).

The subject of this assay is elF2α and P-elF2α. The assay is described as follows: Western blot of elF2α and P-elF2α expression. The settings on record: 1, 2, 5, 10, 20, 40 μM for 48 h. Type of assay: cell-based, Wistar rats. As to the method:
(12000 rpm×10 min), collected supernatant. Nitrocellulose membrane was dipped in a transferring buffer for 15-20 min in advance. Sampled in 50 μg protein/lane, subjected to 10% polyacrylamide gel SDS-PAGE electrophoretic separation, the gel was then tiled in electrotransferring clamp, in which sponge, filter paper, gel, nitrocellulose membrane, filter paper and sponge were mounted from negative electrode to positive electrode in order. Constant current 350 mA, electrotransferred for 45 min. Electrotransferring membrane to […], the nitrocellulose membrane was taken out, the membrane was washed with TBST for 2 min, sealed with 5% defatted milk powder at room temperature for 1 h, added with first antibody (1:1000) and incubated at 4° C. overnight, the membrane was washed with TBST, 3 times×5 min, then […] second antibody was added, incubated at room temperature for 1 h, washed with TBST, 3 times×5 min, soaked separately with TSM1 and TSM2 for 5 min and 10 min, developed with chromogenic substrates 6.6 μl NBT and 3.3 μl BCIP dissolved in 1 ml of TSM2, after bonds become clear, the reaction was terminated by washing with water. After the end of development, the records were stored by scanning or taking photos.

Turning to `O=C(/C=C/c1ccccc1)NC(NC(=S)Nc1cccc2cccnc12)C(Cl)(Cl)Cl` (centres unmarked) [Compound of Formula I, (2E)-3-phenyl-N-[2,2,2-trichloro-1-[[(8-quinolylamino)thiomethyl]amino]ethyl]-2-acrylamide], the “expression level of P-elF2α” value was “gradually increases with the increase of the concentration” and the “expression levels of elF2α” value is recorded as “no significant change”.
